# Legend:
# [1] = system: phenylquinone writhing in mice; assay: Phenylquinone writhing test; assay type: in vivo, female white mice; conditions: Mus musculus, 0.5 h; fasted female mice, oral; phenylquinone i.p. 24 minutes later; observed for 10 minutes from 30 minutes after dosing; read-out: Analgesic Phenylquinone Writhing ED50
# Method: PHENYLQUINONE WRITHING TEST
# The phenylquinone writhing test, modified from Siegmund, et al., Proc. Soc. Exp. Biol. Med., 95, 729 (1957), was employed. A test compound suspended in 1% methylcellulose was given orally to fasted (17-21 hours) female white mice, 5-20 animals per double blind test. Aqueous (0.01% phenyl-p-benzoquinone) phenylquinone was injected intraperitoneally 24 minutes later using 0.20 ml per mouse. […] The effective analgesic dose for 50% of the mice (ED50) was calculated by the moving average method of Thompson, W. R., Bact. Rev., 11, 115-145 (1947).
# [2] = system: adjuvant-induced arthritis in rats; assay: Established Adjuvant-Induced Arthritis in Rats; assay type: in vivo, Lewis (Wistar) male rats; conditions: rat; for ED50: oral gavage once daily for 7 days (days 14-20), paw volume of uninjected left hind paw on day 21, ED50 % estimated by inspection, read-out: Adjuvant Arthritic ED 50; for Percent decrease from control mean paw volume (in parentheses after the ED50 bound): oral once daily for 7 days, presumably at the bounding dose
compound,measurement,setting,value
NC(c1cc(-c2ccc(F)cc2)c(-c2ccc(F)cc2)n1Cc1ccccc1)(C(F)(F)F)C(F)(F)F [Example 13],ED50,[1],> 108 mg/kg
same,ED50,[2],> 25 mg/kg
same,Percent decrease from control mean paw volume (in parentheses after the ED50 bound),[2]; 25 mg/kg,24%
"NC(c1cc(-c2ccc(F)cc2)c(-c2ccc(F)cc2)[nH]1)C(F)(F)F (stereo not drawn) [Example 2, 4,5-Bis(4-fluorophenyl)-α-(trifluoromethyl)-1H-pyrrole-2-methanamine]",ED50,[2],> 25 mg/kg
same,Percent decrease from control mean paw volume (in parentheses after the ED50 bound),[2]; 25 mg/kg,29%
CN(C)c1ccc(-c2[nH]c(C(N)(C(F)(F)F)C(F)(F)F)cc2-c2ccc(F)cc2)cc1 [Example 9],ED50,[1],> 108 mg/kg
same,ED50,[2],4.9 mg/kg
NC(c1cc(-c2ccccc2)c(-c2ccccc2)[nH]1)(C(F)(F)F)C(F)(F)F [Example 11],ED50,[1],> 108 mg/kg
same,ED50,[2],20 mg/kg
Cc1c(C(N)(C(F)(F)F)C(F)(F)F)[nH]c(-c2ccc(F)cc2)c1-c1ccc(F)cc1 [Example 8],ED50,[1],> 108 mg/kg
same,ED50,[2],0.77 mg/kg
Cn1c(C(N)(C(F)(F)F)C(F)(F)F)cc(-c2ccc(F)cc2)c1-c1ccc(F)cc1 [Example 3],ED50,[1],> 108 mg/kg
same,ED50,[2],2.6 mg/kg
"CNC(c1cc(-c2ccc(F)cc2)c(-c2ccc(F)cc2)n1C)(C(F)(F)F)C(F)(F)F [Example 14, 4,5-Bis(4-fluorophenyl)-N,1-dimethyl-α,α-di(trifluoromethyl)-1H-pyrrole-2-methanamine]",ED50,[1],> 108 mg/kg
same,ED50,[2],1 mg/kg
NC(c1cc(-c2ccc(F)cc2)c(-c2cccnc2)[nH]1)(C(F)(F)F)C(F)(F)F [Example 12],ED50,[1],> 108 mg/kg
same,ED50,[2],12.5 mg/kg
NC(c1cc(-c2ccc(F)cc2)c(-c2ccc(Br)cc2)[nH]1)(C(F)(F)F)C(F)(F)F [Example 6],ED50,[1],> 108 mg/kg
same,ED50,[2],3.4 mg/kg
NC(c1cc(-c2ccc(F)cc2)c(-c2ccc(F)cc2)[nH]1)(C(F)(F)F)C(F)(F)Cl (stereo not shown) [Example 15],ED50,[2],0.7 mg/kg
COc1ccc(-c2cc(C(N)(C(F)(F)F)C(F)(F)F)[nH]c2-c2ccc(OC)cc2)cc1 [Example 4],ED50,[1],45 mg/kg
same,ED50,[2],3.3 mg/kg
Cc1ccc(-c2cc(C(N)(C(F)(F)F)C(F)(F)F)[nH]c2-c2ccc(C)cc2)cc1 [Example 7],ED50,[1],> 108 mg/kg
same,ED50,[2],> 9 mg/kg
same,Percent decrease from control mean paw volume (in parentheses after the ED50 bound),[2]; 9 mg/kg,45%
"CNC(c1cc(-c2ccc(F)cc2)c(-c2ccc(F)cc2)[nH]1)(C(F)(F)F)C(F)(F)F [Example 5, 4,5-Bis(4-fluorophenyl)-N-methyl-α,α-di(trifluoromethyl)-1H-pyrrole-2-methanamine]",ED50,[1],> 108 mg/kg
same,ED50,[2],0.8 mg/kg
NC(c1cc(-c2ccc(Cl)cc2)c(-c2ccc(Cl)cc2)[nH]1)(C(F)(F)F)C(F)(F)F [Example 10],ED50,[1],> 108 mg/kg
same,ED50,[2],4.4 mg/kg
"NC(c1cc(-c2ccc(F)cc2)c(-c2ccc(F)cc2)[nH]1)(C(F)(F)F)C(F)(F)F [Example 1, 4,5-Bis(4-fluorophenyl)-α,α-bis(trifluoromethyl)-1H-pyrrole-2-methanamine]",ED50,[1],27 mg/kg
same,ED50,[2],0.45 mg/kg

# Reference: patent US4335136A, “Anti-inflammatory 4,5-diaryl-α-(polyfluoroalkyl)-1H-pyrrole-2-methanamines” (E. I. Du Pont de Nemours and Company, priority 1981, dated 1982)
